Where a name gives a salt, the structure may show the parent alone.
First: Cc1cccc(-c2cccc3c2OC(CN)C3)c1 (single isomer, unassigned; (-)) (as salt: hydrochloride) [Example 43, (−)-1-[7-(3-methylphenyl)-2,3-dihydro-1-benzofuran-2-yl]methanamine]
Second: NCC1Cc2cccc(-c3cccc(C(F)(F)F)c3)c2O1 (single isomer, unassigned; (-)) (as salt: hydrochloride) [Example 135, (−)-1-{7-[3-(trifluoromethyl)phenyl]-2,3-dihydro-1-benzofuran-2-yl}methanamine]
The melting point of the first is higher: 194 to 196 °C for the first, 184 to 186 °C for the second.

First: Cc1ccccc1-c1cccc2c1OC(CN)C2 (single isomer, unassigned; (-)) (as salt: hydrochloride) [Example 49, (−)-1-[7-(2-methylphenyl)-2,3-dihydro-1-benzofuran-2-yl]methanamine]
Second: NCC1Cc2cccc(-c3ccccc3F)c2O1 (single isomer, unassigned; (-)) (as salt: hydrochloride) [Example 52, (−)-1-[7-(2-fluorophenyl)-2,3-dihydro-1-benzofuran-2-yl]methanamine]
The melting point of the first is lower: 208 to 209 °C for the first, 224 to 225 °C for the second.

Compared with NCC1Cc2cccc(-c3ccccc3C(F)(F)F)c2O1 (single isomer, unassigned; (-)) (as salt: hydrochloride) [Example 54, (−)-1-{7-[2-(trifluoromethyl)phenyl]-2,3-dihydro-1-benzofuran-2-yl}methanamine], NCC1Cc2c(cccc2-c2ccccc2C(F)(F)F)O1 (single isomer, unassigned; (-)) (as salt: hydrochloride) [Example 123, (−)-1-{4-[2-(trifluoromethyl)phenyl]-2,3-dihydro-1-benzofuran-2-yl}methanamine] is higher in melting point: 109 to 111 °C for the first, 203 to 206 °C for the second.

Compared with Cc1cccc(C)c1-c1cccc2c1OC(CN)C2 (single isomer, unassigned; (-)) (as salt: hydrochloride) [Example 57, (−)-1-[7-(2,6-dimethylphenyl)-2,3-dihydro-1-benzofuran-2-yl]methanamine], NCC1Cc2cccc(-c3c(Cl)cccc3Cl)c2O1 (single isomer, unassigned; (-)) (as salt: hydrochloride) [Example 141, (−)-1-[7-(2,6-dichlorophenyl)-2,3-dihydro-1-benzofuran-2-yl]methanamine] is lower in melting point: 244 to 247 °C for the first, 207 to 209 °C for the second.

Compared with NCC1Cc2cc(F)cc(-c3ccccc3Cl)c2O1 (single isomer, unassigned; (-)) (as salt: hydrochloride) [Example 102, (−)-1-[7-(2-chlorophenyl)-5-fluoro-2,3-dihydro-1-benzofuran-2-yl]methanamine], NCC1Cc2cc(F)cc(-c3ccccc3C(F)(F)F)c2O1 (single isomer, unassigned; (-)) (as salt: hydrochloride) [Example 151, (−)-1-{5-fluoro-7-[2-(trifluoromethyl)phenyl]-2,3-dihydro-1-benzofuran-2-yl}methanamine] is lower in melting point: 206 to 209 °C for the first, 183 to 188 °C for the second.

Compared with COc1cc2c(c(C(C)(C)C)c1)OC(CN)C2 (single isomer, unassigned; (-)) (as salt: hydrochloride) [Example 115, (−)-1-(7-tert-butyl-5-methoxy-2,3-dihydro-1-benzofuran-2-yl)methanamine], COc1ccc(-c2cccc3c2OC(CN)C3)c(OC)c1 (single isomer, unassigned; (-)) (as salt: hydrochloride) [Example 144, (−)-1-[7-(2,4-dimethoxyphenyl)-2,3-dihydro-1-benzofuran-2-yl]methanamine] is higher in melting point: 157 to 159 °C for the first, 166 to 168 °C for the second.

First: NCC1Cc2cccc(-c3ccccc3Cl)c2O1 (single isomer, unassigned; (-)) (as salt: hydrochloride) [Example 129, (−)-1-[7-(2-chlorophenyl)-2,3-dihydro-1-benzofuran-2-yl]methanamine]
Second: NCC1Cc2cccc(-c3ccc(Cl)cc3Cl)c2O1 (single isomer, unassigned; (-)) (as salt: hydrochloride) [Example 149, (−)-1-[7-(2,4-dichlorophenyl)-2,3-dihydro-1-benzofuran-2-yl]methanamine]
The melting point of the first is lower: 186 to 188 °C for the first, 203 to 206 °C for the second.

With CNCC1Cc2cccc(-c3c(Cl)cccc3Cl)c2O1 (single isomer, unassigned; (-)) (as salt: hydrochloride) [Example 434, (−)-{[7-(2,6-dichlorophenyl)-2,3-dihydro-1-benzofuran-2-yl]methyl}methylamine] the melting point was 195 to 197 °C.

From patent publication US7435837B2, “Dihydrobenzofuranyl alkanamine derivatives and methods for using same” (Wyeth, priority 2003, dated 2008)
